Laboratory results as given in PubChem BioAssay AID330 (DTP/NCI, 2004).
Where “and” joins values, the source holds several entries; their conditions need not be identical. Identical values can stand only once. Inconclusive results and toxic doses are left out. How the source made its calls: active means survival T/C of 150% or more; inactive means T/C below 125% in these data.

System: P388 leukemia ip, CD2F1 mice, survival T/C
Experiment: NCI In Vivo Anticancer Drug Screen. Data for tumor model P388 Leukemia (intraperitoneal) in CD2F1 (CDF1) mice
Details: endpoint: median survival time, higher = longer survival
In short: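 Mice carrying the transplanted tumor received test compound or vehicle. Survival was recorded in each group, and the value is the treated-group measurement divided by that of the vehicle-treated control group.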

[1] = dose: 50.0 mg/kg/injection, schedule: Q01DX009 (ip), vehicle: Klucel (hydroxypropylcellulose) (HPC)
[2] = dose: 100.0 mg/kg/injection, schedule: Q01DX009 (ip), vehicle: Klucel (hydroxypropylcellulose) (HPC)
[3] = dose: 200.0 mg/kg/injection, schedule: Q01DX009 (ip), vehicle: Klucel (hydroxypropylcellulose) (HPC)

Measured: T/C

O=C(O)c1ccccc1Oc1ccccc1C(=O)O
inactive: dose: 100.0 mg/kg/injection, schedule: Q04DX003 (ip), vehicle: saline 100 % of control | dose: 200.0 mg/kg/injection, schedule: Q04DX003 (ip), vehicle: saline 100 % of control | dose: 400.0 mg/kg/injection, schedule: Q04DX003 (ip), vehicle: saline 100 % of control

O=C(O)Cc1c[nH]c2cc(Cl)cc(Cl)c12
inactive: dose: 100.0 mg/kg/injection, schedule: Q04DX002 (ip), vehicle: saline with Tween-80 101 % of control | dose: 200.0 mg/kg/injection, schedule: Q04DX002 (ip), vehicle: saline with Tween-80 104 % of control | dose: 400.0 mg/kg/injection, schedule: Q04DX002 (ip), vehicle: saline with Tween-80 101 % of control

Clc1ccc(-c2nnc(-c3ccccc3)o2)cc1Cl
inactive: [1] 112 % of control | [2] 105 % of control | [3] 112 % of control | dose: 400.0 mg/kg/injection, schedule: Q01DX009 (ip), vehicle: Klucel (hydroxypropylcellulose) (HPC) 100 % of control

COc1cc(CC2NCCc3cc(O)ccc32)cc(OC)c1OC (stereo not given)
inactive: [1] 103 % of control | [2] 99 % of control | [3] 102 % of control

CN(C)[C@@H]1C(=O)C(C(=O)NCNC2CC(C)(C)N(O)C(C)(C)C2)=C(O)C2(O)C(=O)C3=C(O)c4c(O)cccc4[C@@](C)(O)C3CC12 (stereo not given in full)
inactive: dose: 100.0 mg/kg/injection, schedule: Q01DX001 (ip), vehicle: saline 105 % of control | dose: 200.0 mg/kg/injection, schedule: Q01DX001 (ip), vehicle: saline 89 % of control | dose: 400.0 mg/kg/injection, schedule: Q01DX001 (ip), vehicle: saline 91 % of control

COC(=O)c1nnn(-c2ccc(Cl)cc2Cl)c1N
inactive: dose: 60.0 mg/kg/injection, schedule: Q01DX005 (ip), vehicle: saline with Tween-80 103 % of control | dose: 120.0 mg/kg/injection, schedule: Q01DX005 (ip), vehicle: saline with Tween-80 103 % of control | dose: 240.0 mg/kg/injection, schedule: Q01DX005 (ip), vehicle: saline with Tween-80 122 % of control

Cn1ncc(=O)[nH]c1=O
inactive: dose: 50.0 mg/kg/injection, schedule: Q01DX005 (ip), vehicle: Klucel (hydroxypropylcellulose) (HPC) 103 % of control | dose: 100.0 mg/kg/injection, schedule: Q01DX005 (ip), vehicle: Klucel (hydroxypropylcellulose) (HPC) 98 % of control | dose: 200.0 mg/kg/injection, schedule: Q01DX005 (ip), vehicle: Klucel (hydroxypropylcellulose) (HPC) 103 % of control

CSc1cccc(NC(=O)OCCOc2ccccc2Cl)c1
inactive: dose: 50.0 mg/kg/injection, schedule: Q01DX009 (ip), vehicle: saline with Tween-80 105 % of control | dose: 100.0 mg/kg/injection, schedule: Q01DX009 (ip), vehicle: saline with Tween-80 101 % of control | dose: 200.0 mg/kg/injection, schedule: Q01DX009 (ip), vehicle: saline with Tween-80 100 % of control

O=C(NC1COB(c2cc(C(F)(F)F)cc(C(F)(F)F)c2)OC1c1ccc([N+](=O)[O-])cc1)C(Cl)Cl (stereo not given)
inactive: dose: 60.0 mg/kg/injection, schedule: Q01DX005 (ip), vehicle: Klucel (hydroxypropylcellulose) (HPC) 100 % of control | dose: 120.0 mg/kg/injection, schedule: Q01DX005 (ip), vehicle: Klucel (hydroxypropylcellulose) (HPC) 100 % of control | dose: 240.0 mg/kg/injection, schedule: Q01DX005 (ip), vehicle: Klucel (hydroxypropylcellulose) (HPC) 99 % of control

C=C1C(=O)O[C@@H]2/C=C(\C)CC/C=C(/C)CC[C@@H]12
inactive: dose: 12.5 mg/kg/injection, schedule: Q04DX003 (ip), vehicle: Klucel (hydroxypropylcellulose) (HPC) 100 % of control | dose: 25.0 mg/kg/injection, schedule: Q04DX003 (ip), vehicle: Klucel (hydroxypropylcellulose) (HPC) 107 % of control | dose: 50.0 mg/kg/injection, schedule: Q04DX003 (ip), vehicle: Klucel (hydroxypropylcellulose) (HPC) 100 % of control | dose: 100.0 mg/kg/injection, schedule: Q04DX003 (ip), vehicle: Klucel (hydroxypropylcellulose) (HPC) 113 % of control

CCCCN(CCCC)CC(CN(CC)CC)N(CC)C(=O)Nc1ccccc1 (stereo not given)
inactive: dose: 12.5 mg/kg/injection, schedule: Q01DX005 (ip), vehicle: saline 94 % of control | dose: 25.0 mg/kg/injection, schedule: Q01DX005 (ip), vehicle: saline 93 % of control | dose: 50.0 mg/kg/injection, schedule: Q01DX005 (ip), vehicle: saline 102 % of control and 94 % of control

Cn1c(=O)c2nc(-c3ccccn3)cnc2n(C)c1=O
inactive: dose: 25.0 mg/kg/injection, schedule: Q01DX001 (ip), vehicle: Klucel (hydroxypropylcellulose) (HPC) 116 % of control | dose: 50.0 mg/kg/injection, schedule: Q01DX001 (ip), vehicle: Klucel (hydroxypropylcellulose) (HPC) 106 % of control | dose: 100.0 mg/kg/injection, schedule: Q01DX001 (ip), vehicle: Klucel (hydroxypropylcellulose) (HPC) 100 % of control and 122 % of control and 92 % of control | dose: 200.0 mg/kg/injection, schedule: Q01DX001 (ip), vehicle: Klucel (hydroxypropylcellulose) (HPC) 95 % of control (2×) and 96 % of control | dose: 400.0 mg/kg/injection, schedule: Q01DX001 (ip), vehicle: Klucel (hydroxypropylcellulose) (HPC) 94 % of control and 95 % of control
